Calls of active or inactive are those of the source. The rule behind the calls is not given here.
Legend:
[1] = target: Protein cereblon/Kelch-like ECH-associated protein 1 (Mus musculus) (UniProt Q9Z2X8+Q8C7D2); assay: PROTAC activity at CRBN/Keap1 in mouse AML12 cells assessed as degradation of Keap1 protein at 1 uM incubated for 24 hrs by Western blotting analysis; type: cell-based
[2] = target: Kelch-like ECH-associated protein 1 (Homo sapiens, UniProt Q14145); assay: Binding affinity to Keap1 (unknown origin) assessed as dissociation constant incubated for 200 sec by sensor chip immobilization based surface plasmon resonance analysis
Sequence of Kelch-like ECH-associated protein 1 (Q14145 whole entry): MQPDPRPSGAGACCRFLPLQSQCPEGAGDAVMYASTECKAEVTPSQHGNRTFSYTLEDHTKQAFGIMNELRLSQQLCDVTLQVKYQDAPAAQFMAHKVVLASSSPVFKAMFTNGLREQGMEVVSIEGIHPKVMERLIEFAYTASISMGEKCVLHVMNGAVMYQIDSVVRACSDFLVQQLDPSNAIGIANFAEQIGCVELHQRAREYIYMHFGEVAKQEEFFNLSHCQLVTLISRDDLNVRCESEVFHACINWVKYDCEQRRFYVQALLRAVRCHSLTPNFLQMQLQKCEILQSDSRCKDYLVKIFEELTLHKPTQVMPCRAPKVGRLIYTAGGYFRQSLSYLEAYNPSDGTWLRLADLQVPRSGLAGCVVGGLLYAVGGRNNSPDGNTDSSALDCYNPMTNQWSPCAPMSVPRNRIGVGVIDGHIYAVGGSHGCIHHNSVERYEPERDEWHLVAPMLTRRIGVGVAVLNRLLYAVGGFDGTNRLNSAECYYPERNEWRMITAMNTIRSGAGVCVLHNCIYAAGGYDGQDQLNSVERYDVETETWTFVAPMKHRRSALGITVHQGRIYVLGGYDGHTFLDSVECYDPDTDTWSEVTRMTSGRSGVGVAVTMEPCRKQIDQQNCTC

AML12 [3] = assay: Antioxidant activity against free fatty acid induced oxidative stress in mouse AML12 cells assessed as downregulation of Keap1 protein expression level incubated for 24 hrs by immunoblot analysis; type: functional, cell-based
AML12 [4] = assay: Antioxidant activity against free fatty acid induced oxidative stress in mouse AML12 cells assessed as upregulation of Nrf2 protein expression level incubated for 24 hrs by immunoblot analysis; type: functional, cell-based
AML12 [5] = assay: Antioxidant activity against free fatty acid induced oxidative stress in mouse AML12 cells assessed as upregulation of HO-1 protein expression level incubated for 24 hrs by immunoblot analysis; type: functional, cell-based
AML12 [6] = assay: Antioxidant activity against free fatty acid induced oxidative stress in mouse AML12 cells assessed as upregulation of NQO1 protein expression level incubated for 24 hrs by immunoblot analysis; type: functional, cell-based
AML12 [7] = assay: Antioxidant activity against free fatty acid induced oxidative stress in mouse AML12 cells assessed as increase in GSH level; type: functional, cell-based
AML12 [8] = assay: Antioxidant activity against free fatty acid induced oxidative stress in mouse AML12 cells assessed as increase in SOD level; type: functional, cell-based
AML12 [9] = assay: Antioxidant activity against free fatty acid induced oxidative stress in mouse AML12 cells assessed as decrease in ROS level incubated for 24 hrs; type: functional, cell-based
Mus musculus [10] = assay: Antioxidant activity against MCD diet-induced oxidative stress in C57Bl/6 mouse model of NAFLD assessed as downregulation of liver Keap1 protein expression level at 1 mg/kg,ip administrated for 4 weeks by immunoblot analysis; type: functional, organism-based
Mus musculus [11] = assay: Antioxidant activity against MCD diet-induced oxidative stress in C57Bl/6 mouse model of NAFLD assessed as upregulation of liver Nrf2 protein expression level at 1 mg/kg,ip administrated for 4 weeks by immunoblot analysis; type: functional, organism-based
Mus musculus [12] = assay: Antioxidant activity against MCD diet-induced oxidative stress in C57Bl/6 mouse model of NAFLD assessed as downregulation of liver Keap1 protein expression level at 1 mg/kg,ip administrated for 4 weeks by immunohistochemical staining assay; type: functional, organism-based
Mus musculus [13] = assay: Antioxidant activity against MCD diet-induced oxidative stress in C57Bl/6 mouse model of NAFLD assessed as downregulation of liver Keap1 protein expression level at 1 mg/kg,ip administrated for 4 weeks by immunofluorescence staining analysis; type: functional, organism-based
Mus musculus [14] = assay: Antioxidant activity against MCD diet-induced oxidative stress in C57Bl/6 mouse model of NAFLD assessed as upregulation of liver Nrf2 protein expression level at 1 mg/kg,ip administrated for 4 weeks by immunofluorescence staining analysis; type: functional, organism-based
Mus musculus [15] = assay: Antioxidant activity against MCD diet-induced oxidative stress in C57Bl/6 mouse model of NAFLD assessed as upregulation of liver HO-1 protein expression level at 1 mg/kg,ip administrated for 4 weeks by immunohistochemical staining assay; type: functional, organism-based
Mus musculus [16] = assay: Antioxidant activity against MCD diet-induced oxidative stress in C57Bl/6 mouse model of NAFLD assessed as upregulation of liver NQO1 protein expression level at 1 mg/kg,ip administrated for 4 weeks by immunohistochemical staining assay; type: functional, organism-based
Mus musculus [17] = assay: Antioxidant activity against MCD diet-induced oxidative stress in C57Bl/6 mouse model of NAFLD assessed as increase in CAT level in liver at 1 mg/kg,ip administrated for 4 weeks; type: functional, organism-based
Mus musculus [18] = assay: Antioxidant activity against MCD diet-induced oxidative stress in C57Bl/6 mouse model of NAFLD assessed as increase in SOD level in liver at 1 mg/kg,ip administrated for 4 weeks; type: functional, organism-based
Mus musculus [19] = assay: Antioxidant activity against MCD diet-induced oxidative stress in C57Bl/6 mouse model of NAFLD assessed as increase in GSH level in liver at 1 mg/kg,ip administrated for 4 weeks; type: functional, organism-based
Mus musculus [20] = assay: Antioxidant activity against MCD diet-induced oxidative stress in C57Bl/6 mouse model of NAFLD assessed as decrease in liver ROS level at 1 mg/kg,ip administrated for 4 weeks by immunostaining analysis; type: functional, organism-based
Mus musculus [21] = assay: Antioxidant activity against MCD diet-induced oxidative stress in C57Bl/6 mouse model of NAFLD assessed as reduction of serum TG level at 1 mg/kg,ip administrated for 4 weeks; type: functional, organism-based
Mus musculus [22] = assay: Antioxidant activity against MCD diet-induced oxidative stress in C57Bl/6 mouse model of NAFLD assessed as decrease in histopathological change in liver at 1 mg/kg,ip administrated for 4 weeks by hematoxylin and eosin staining based assay; type: functional, organism-based
[23] = Acute toxicity in zebrafish at < 2.5 uM observed at 120 hrs post fertilization; design: species or system Danio rerio; settings: in vivo
[24] = Acute toxicity in zebrafish assessed as pericardial edema at 5 uM observed at 120 hrs post fertilization; design: species or system Danio rerio; settings: in vivo
[25] = Acute toxicity in zebrafish assessed as death at 5 uM observed at 120 hrs post fertilization; design: species or system Danio rerio; settings: in vivo
[26] = Acute toxicity in zebrafish assessed as death at 10 uM observed at 72 hrs post fertilization; design: species or system Danio rerio; settings: in vivo
[27] = Acute toxicity in C57BL/6 mouse assessed as visceral damage at 20 mg/kg,ip qd administrated for 3 consecutive days and measured on day 4 by hematoxylin and eosin staining based assay; type: organism-based; settings: in vivo
[28] = Acute toxicity in C57BL/6 mouse assessed as histopathological change in heart at 20 mg/kg,ip qd administrated for 3 consecutive days and measured on day 4 by hematoxylin and eosin staining based assay; type: organism-based; settings: in vivo
[29] = Acute toxicity in C57BL/6 mouse assessed as histopathological change in liver at 20 mg/kg,ip qd administrated for 3 consecutive days and measured on day 4 by hematoxylin and eosin staining based assay; type: organism-based; settings: in vivo
[30] = Acute toxicity in C57BL/6 mouse assessed as histopathological change in lung at 20 mg/kg,ip qd administrated for 3 consecutive days and measured on day 4 by hematoxylin and eosin staining based assay; type: organism-based; settings: in vivo
[31] = Acute toxicity in C57BL/6 mouse assessed as histopathological change in spleen at 20 mg/kg,ip qd administrated for 3 consecutive days and measured on day 4 by hematoxylin and eosin staining based assay; type: organism-based; settings: in vivo
[32] = Acute toxicity in C57BL/6 mouse assessed as visceral cellular damage at 20 mg/kg,ip qd administrated for 3 consecutive days and measured on day 4 by hematoxylin and eosin staining based assay; type: organism-based; settings: in vivo
[33] = Acute toxicity in C57BL/6 mouse assessed as visceral inflammatory cell infiltration at 20 mg/kg,ip qd administrated for 3 consecutive days and measured on day 4 by hematoxylin and eosin staining based assay; type: organism-based; settings: in vivo

Sequence of Protein cereblon/Kelch-like ECH-associated protein 1 (Mus musculus) (Q8C7D2 whole entry, looked up): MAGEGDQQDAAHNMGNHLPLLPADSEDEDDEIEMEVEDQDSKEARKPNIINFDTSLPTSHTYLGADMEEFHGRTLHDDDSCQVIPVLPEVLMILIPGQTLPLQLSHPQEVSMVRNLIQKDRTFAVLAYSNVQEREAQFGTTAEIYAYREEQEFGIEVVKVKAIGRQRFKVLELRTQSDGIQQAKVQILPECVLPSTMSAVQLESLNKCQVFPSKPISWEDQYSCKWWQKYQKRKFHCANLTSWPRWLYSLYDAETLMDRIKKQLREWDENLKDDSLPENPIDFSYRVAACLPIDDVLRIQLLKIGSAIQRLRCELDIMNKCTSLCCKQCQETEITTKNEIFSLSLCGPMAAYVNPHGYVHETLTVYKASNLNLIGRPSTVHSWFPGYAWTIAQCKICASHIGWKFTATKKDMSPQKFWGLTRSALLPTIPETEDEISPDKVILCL
Sequence of Protein cereblon/Kelch-like ECH-associated protein 1 (Mus musculus) (Q9Z2X8 whole entry, looked up): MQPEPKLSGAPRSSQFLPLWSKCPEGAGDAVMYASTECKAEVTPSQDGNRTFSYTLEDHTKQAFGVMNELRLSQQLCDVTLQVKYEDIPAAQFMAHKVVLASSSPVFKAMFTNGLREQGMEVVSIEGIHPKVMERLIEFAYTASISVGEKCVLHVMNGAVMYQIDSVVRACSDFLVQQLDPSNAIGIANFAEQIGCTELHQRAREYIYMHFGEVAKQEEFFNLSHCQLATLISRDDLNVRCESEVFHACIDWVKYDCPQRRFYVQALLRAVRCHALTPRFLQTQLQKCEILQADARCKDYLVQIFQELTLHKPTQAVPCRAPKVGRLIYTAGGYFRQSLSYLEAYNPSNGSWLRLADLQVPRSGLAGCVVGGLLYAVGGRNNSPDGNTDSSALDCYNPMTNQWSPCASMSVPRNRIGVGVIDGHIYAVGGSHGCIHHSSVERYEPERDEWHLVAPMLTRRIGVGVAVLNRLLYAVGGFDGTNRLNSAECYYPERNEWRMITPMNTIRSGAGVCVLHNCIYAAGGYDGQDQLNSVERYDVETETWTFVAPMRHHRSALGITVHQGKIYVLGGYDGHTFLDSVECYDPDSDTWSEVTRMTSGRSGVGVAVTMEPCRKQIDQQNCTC

Q: With `Nc1cccc2c1C(=O)N(C1CCC(=O)NC1=O)C2=O` (stereo not given) as the compound, how does the Activity [1] read?
A: The Activity was “inactive”.

Q: With `CN1C(=O)CCC(N2C(=O)c3cccc(NCCCCCNC(=O)[C@]45CCC(C)(C)C[C@H]4[C@H]4C(=O)C=C6C7(C)C=C(C#N)C(=O)C(C)(C)[C@@H]7CC[C@@]6(C)[C@]4(C)CC5)c3C2=O)C1=O` (single isomer, unassigned) as the compound, how does the Activity [1] read?
A: Its Activity is “inactive”.

Q: With `CC1(C)CC[C@]2(C(=O)O)CC[C@]3(C)[C@H](C(=O)C=C4[C@@]5(C)C=C(C#N)C(=O)C(C)(C)[C@@H]5CC[C@]43C)[C@@H]2C1` [BARDOXOLONE] as the compound, how does the Activity [1] read?
A: Its Activity is “inactive”.

Q: What about the Kd [2] of the same compound?
A: Its Kd is 48.7 µM.

Q: What about the Activity (AML12 [3]) of the same compound?
A: Its Activity is “inactive”.

Q: What about the Activity (AML12 [4]) of the same compound?
A: Its Activity is “inactive”.

Q: And the Activity (AML12 [5])?
A: Its Activity is “inactive”.

Q: What about the Activity (AML12 [6]) of the same compound?
A: Its Activity is “inactive”.

Q: What about the Activity (AML12 [7]) of the same compound?
A: The Activity was “inactive”.

Q: What about the Activity (AML12 [8]) of the same compound?
A: Its Activity is “Active”.

Q: And the Activity (AML12 [9])?
A: The Activity was “Active”.

Q: What about the Activity (Mus musculus [10]) of the same compound?
A: Its Activity is “inactive”.

Q: What about the Activity (Mus musculus [11]) of the same compound?
A: Its Activity is “inactive”.

Q: What about the Activity (Mus musculus [12]) of the same compound?
A: Its Activity is “inactive”.

Q: And the Activity (Mus musculus [13])?
A: Its Activity is “inactive”.

Q: And the Activity (Mus musculus [14])?
A: The Activity was “inactive”.

Q: And the Activity (Mus musculus [15])?
A: Its Activity is “inactive”.

Q: What about the Activity (Mus musculus [16]) of the same compound?
A: The Activity was “inactive”.

Q: What about the Activity (Mus musculus [17]) of the same compound?
A: Its Activity is “Active”.

Q: What about the Activity (Mus musculus [18]) of the same compound?
A: The Activity was “Active”.

Q: And the Activity (Mus musculus [19])?
A: Its Activity is “Active”.

Q: What about the Activity (Mus musculus [20]) of the same compound?
A: Its Activity is “Active”.

Q: And the Activity (Mus musculus [21])?
A: Its Activity is “Active”.

Q: What about the Activity (Mus musculus [22]) of the same compound?
A: The Activity was “Active”.

Q: And the Activity [23]?
A: The Activity was “Non-Toxic”.

Q: What about the Activity [24] of the same compound?
A: The Activity was “Toxic”.

Q: And the Activity [25]?
A: The Activity was “Toxic”.

Q: What about the Activity [26] of the same compound?
A: Its Activity is “Toxic”.

Q: What about the Activity [27] of the same compound?
A: Its Activity is “Non-Toxic”.

Q: What about the Activity [28] of the same compound?
A: The Activity was “Toxic”.

Q: And the Activity [29]?
A: The Activity was “Toxic”.

Q: And the Activity [30]?
A: Its Activity is “Toxic”.

Q: And the Activity [31]?
A: The Activity was “Toxic”.

Q: What about the Activity [32] of the same compound?
A: The Activity was “Toxic”.

Q: What about the Activity [33] of the same compound?
A: Its Activity is “Toxic”.
